Assay results taken from ChEMBL document CHEMBL3244053, “Structural modification study of bis(substituted aminoalkylamino)anthraquinones. An evaluation of the relationship of the [2-[(2-hydroxyethyl)amino]ethyl]amino side chain with antineoplastic activity” (1979).
Active and inactive are the calls of the source. The rule behind the calls is not given here.

Legend:
[1] = system: P388; assay: Antineoplastic activity against mouse P388 cells allografted in CDF1 mouse assessed as survival at 8 mg/kg qd for 9 days; assay type: functional, organism-based; set-up: dose 8 mg/kg
[2] = system: P388; assay: Antineoplastic activity against mouse P388 cells allografted in CDF1 mouse assessed as survival at 4 mg/kg qd for 9 days; assay type: functional, organism-based; set-up: dose 4 mg/kg
[3] = system: Colon 26; assay: Antineoplastic activity against mouse Colon 26 cells allografted in CDF1 mouse assessed as survival at 4 mg/kg qd for 9 days; assay type: functional, organism-based; set-up: dose 4 mg/kg
[4] = system: B16; assay: Antineoplastic activity against mouse B16 cells allografted in BDF1 mouse at 16 mg/kg qd for 9 days relative to control; assay type: functional
[5] = system: L1210; assay: Antineoplastic activity against mouse L1210 cells allografted in CDF1 mouse assessed as survival at 8 mg/kg qd for 9 days; assay type: functional, organism-based; set-up: dose 8 mg/kg
[6] = system: L1210; assay: Antineoplastic activity against mouse L1210 cells allografted in CDF1 mouse assessed as survival at 4 mg/kg qd for 9 days; assay type: functional, organism-based; set-up: dose 4 mg/kg
[7] = system: Colon 26; assay: Antineoplastic activity against mouse Colon 26 cells allografted in CDF1 mouse assessed as survival at 2 mg/kg qd for 9 days; assay type: functional, organism-based; set-up: dose 2 mg/kg
[8] = system: L1210; assay: Antineoplastic activity against mouse L1210 cells allografted in CDF1 mouse at 8 mg/kg qd for 9 days relative to control; assay type: functional
[9] = system: Colon 26; assay: Antineoplastic activity against mouse Colon 26 cells allografted in CDF1 mouse at 2 mg/kg qd for 9 days relative to control; assay type: functional
[10] = system: Colon 26; assay: Antineoplastic activity against mouse Colon 26 cells allografted in CDF1 mouse assessed as survival at 8 mg/kg qd for 9 days; assay type: functional, organism-based; set-up: dose 8 mg/kg
[11] = system: B16; assay: Antineoplastic activity against mouse B16 cells allografted in BDF1 mouse assessed as survival at 8 mg/kg qd for 9 days; assay type: functional, organism-based; set-up: dose 8 mg/kg
[12] = system: B16; assay: Antineoplastic activity against mouse B16 cells allografted in BDF1 mouse at 8 mg/kg qd for 9 days relative to control; assay type: functional
[13] = system: P388; assay: Antineoplastic activity against mouse P388 cells allografted in CDF1 mouse assessed as survival at 16 mg/kg qd for 9 days; assay type: functional, organism-based; set-up: dose 16 mg/kg
[14] = system: P388; assay: Antineoplastic activity against mouse P388 cells allografted in CDF1 mouse at 2 mg/kg qd for 9 days relative to control; assay type: functional
[15] = system: P388; assay: Antineoplastic activity against mouse P388 cells allografted in CDF1 mouse at 8 mg/kg qd for 9 days relative to control; assay type: functional
[16] = system: L1210; assay: Antineoplastic activity against mouse L1210 cells allografted in CDF1 mouse assessed as survival at 2 mg/kg qd for 9 days; assay type: functional, organism-based; set-up: dose 2 mg/kg
[17] = system: B16; assay: Antineoplastic activity against mouse B16 cells allografted in BDF1 mouse at 2 mg/kg qd for 9 days relative to control; assay type: functional
[18] = system: B16; assay: Antineoplastic activity against mouse B16 cells allografted in BDF1 mouse at 1 mg/kg qd for 9 days relative to control; assay type: functional
[19] = system: B16; assay: Antineoplastic activity against mouse B16 cells allografted in BDF1 mouse assessed as survival at 16 mg/kg qd for 9 days; assay type: functional, organism-based; set-up: dose 16 mg/kg
[20] = system: Colon 26; assay: Antineoplastic activity against mouse Colon 26 cells allografted in CDF1 mouse at 8 mg/kg qd for 9 days relative to control; assay type: functional
[21] = system: L1210; assay: Antineoplastic activity against mouse L1210 cells allografted in CDF1 mouse at 2 mg/kg qd for 9 days relative to control; assay type: functional
[22] = system: B16; assay: Antineoplastic activity against mouse B16 cells allografted in BDF1 mouse assessed as survival at 1 mg/kg qd for 9 days; assay type: functional, organism-based; set-up: dose 1 mg/kg
[23] = system: P388; assay: Antineoplastic activity against mouse P388 cells allografted in CDF1 mouse at 1 mg/kg qd for 9 days relative to control; assay type: functional
[24] = system: P388; assay: Antineoplastic activity against mouse P388 cells allografted in CDF1 mouse at 4 mg/kg qd for 9 days relative to control; assay type: functional
[25] = system: L1210; assay: Antineoplastic activity against mouse L1210 cells allografted in CDF1 mouse at 16 mg/kg qd for 9 days relative to control; assay type: functional
[26] = system: P388; assay: Antineoplastic activity against mouse P388 cells allografted in CDF1 mouse assessed as survival at 2 mg/kg qd for 9 days; assay type: functional, organism-based; set-up: dose 2 mg/kg
[27] = system: B16; assay: Antineoplastic activity against mouse B16 cells allografted in BDF1 mouse at 4 mg/kg qd for 9 days relative to control; assay type: functional
[28] = system: Colon 26; assay: Antineoplastic activity against mouse Colon 26 cells allografted in CDF1 mouse at 4 mg/kg qd for 9 days relative to control; assay type: functional
[29] = system: L1210; assay: Antineoplastic activity against mouse L1210 cells allografted in CDF1 mouse at 4 mg/kg qd for 9 days relative to control; assay type: functional
[30] = system: B16; assay: Antineoplastic activity against mouse B16 cells allografted in BDF1 mouse assessed as survival at 4 mg/kg qd for 9 days; assay type: functional, organism-based; set-up: dose 4 mg/kg
[31] = system: P388; assay: Antineoplastic activity against mouse P388 cells allografted in CDF1 mouse assessed as survival at 1 mg/kg qd for 9 days; assay type: functional, organism-based; set-up: dose 1 mg/kg
[32] = system: L1210; assay: Antineoplastic activity against mouse L1210 cells allografted in CDF1 mouse assessed as survival at 16 mg/kg qd for 9 days; assay type: functional, organism-based; set-up: dose 16 mg/kg
[33] = system: P388; assay: Antineoplastic activity against mouse P388 cells allografted in CDF1 mouse at 16 mg/kg qd for 9 days relative to control; assay type: functional
[34] = system: B16; assay: Antineoplastic activity against mouse B16 cells allografted in BDF1 mouse assessed as survival at 2 mg/kg qd for 9 days; assay type: functional, organism-based; set-up: dose 2 mg/kg

O=C1c2ccccc2C(=O)c2c(NCCNCCO)ccc(NCCNCCO)c21 [AMETANTRONE]
Activity [1]: Active | Activity [2]: Active | Activity [3]: Active | T/C [4]: 225% | Activity [5]: Active | Activity [6]: Active | Activity [7]: Active | T/C [8]: 288% | T/C [9]: 132% | Activity [10]: Active | Activity [11]: Active | T/C [12]: 204% | Activity [13]: Active | T/C [14]: 200% | T/C [15]: 254% | Activity [16]: Active | T/C [17]: 172% | T/C [18]: 151% | Activity [19]: Active | T/C [20]: 201% | T/C [21]: 180% | Activity [22]: Active | T/C [23]: 155% | T/C [24]: 219% | T/C [25]: 234% | Activity [26]: Active | T/C [27]: 194% | T/C [28]: 177% | T/C [29]: 193% | Activity [30]: Active | Activity [31]: Active | Activity [32]: Active | T/C [33]: 321% | Activity [34]: Active
